The source of these data is patent US10918657B2 (priority 2013, dated 2021).

The subject of experiment [1] is giant reticulospinal (RS) neurons. Also noted: species or system Petromyzon marinus. Particulars: in vivo.
Experiment [2] has the same test system. Details: species or system Petromyzon marinus. Particulars: in vivo. This is another data set of the same source.
Experiment [3] relates to α-synuclein neurotoxicity. Particulars: in vivo; cited from earlier work.
Experiment [4] relates to lamprey γ-synuclein. The experiment is classed as biochemical, Petromyzon marinus. The note with it: 100 pM synuclein, varying CLR01 concentrations. Here is the method:
After purification of GST-tagged lamprey γ-synuclein, GST was cleaved off using thrombin (10 U/mg protein; GE Healthcare). Untagged γ-synuclein was then separated from GST and thrombin using Glutathione Sepharose 4B beads and p-aminobenzamidine agarose ([…]/50 U thrombin; Sigma A7155), respectively, and dialyzed into 0.1M PBS, pH 7.4. Aggregation of the purified lamprey γ-synuclein was analyzed using the thioflavin T (ThT) fluorescence assay and electron microscopy as described previously (Roychaudhuri et al. (2014) J. Mol. Biol. 426: 2422-2441), except that 100 pM synuclein and varying CLR01 concentrations were used.

The target in experiment [5] is α-synuclein (Homo sapiens, UniProt P37840). Particulars: cited from earlier work.
The subject of experiment [6] is Aβ and hyperphosphorylated tau. The note with it: mouse, in vivo; cited from earlier work.

Regarding “5′-CGC cTg CAT TgC TCT TTg TTT cTC T-3′ [MM MO]”, the “survival of the giant RS neurons at the population level (Nissl (+))” value in experiment [1] turned out to be 60.0±8.0. In experiment [2], the “synuclein immunofluorescence intensity in good survivors” value was 26.0±2.4 AU and the “synuclein immunofluorescence intensity in poor survivors” value came out at 40.7±3.7 AU.
Consider 5′-[…]-3′ [Con MO], for which the “survival of the giant RS neurons at the population level (Nissl (+))” value in experiment [1] turned out to be 56.7±5.7. In experiment [2], the “synuclein immunofluorescence intensity in good survivors” value was found to be 25.7±1.9 AU and the “synuclein immunofluorescence intensity in poor survivors” value was found to be 42.6±3.5 AU.
`O=P(O)(O)Oc1c2c(c(OP(=O)(O)O)c3c1[C@H]1C[C@@H]3c3cc4c(cc31)[C@H]1C[C@@H]4c3ccccc31)[C@H]1C[C@@H]2c2cc3c(cc21)[C@H]1C[C@@H]3c2ccccc21` [CLR01]: in experiment [3], the “effect on neurodegeneration and survival in zebrafish model” value was “reduces neurodegeneration and improves survival”. Besides, the “inhibition of lamprey γ-synuclein aggregation (ThT fluorescence)” value in experiment [4] was “inhibited by CLR01 in a dose-dependent manner”. In addition, in experiment [5], the “effect on α-synuclein clearance in vitro” value is given as “facilitates α-synuclein clearance in vitro”; the “effect on α-synuclein self-assembly and toxicity in vitro” value was “inhibits a-synuclein self-assembly and toxicity in vitro”. In experiment [1], the “increase in neuronal survival across the entire RS neuron population” value worked out at 22% and the “increase of percentage of Nissl (+) "poor survivors"” value is recorded as “more than 4 fold”. For the same molecule, in experiment [2], the “synuclein immunofluorescence intensity in "good survivors"” value turned out to be 5.6±1.3 AU and the “synuclein immunofluorescence intensity in "poor survivors"” value stood at 25.7±3.1 AU. The “effect on accumulation of Aβ and hyperphosphorylated tau” value in experiment [6] was “reduce accumulation of Aβ and hyperphosphorylated tau”.
